Converted amounts (≈) assume the structure as drawn. Where two headings read alike, the source gives them in different places.
Legend:
E. coli SK 12140 = assay: MIC in vitro (Table 1), E. coli SK 12140; assay type: cell-based; conditions: Escherichia coli, SK12140, in vitro
Description: (§1) Compound names corresponding to numbers are given in the experimental section. For comparative purposes, data for cephamandole, which is 7-mandelamido-3-(1-methyltetrazol-5-ylthiomethyl)-3-cephem-4-carboxylic acid, is also given in Tables 1 and 2.

Shigella HH 117 = assay: MIC in vitro (Table 1), Shigella HH 117; assay type: cell-based; conditions: Shigella, HH117, in vitro, read-out: MIC
Description: as §1, with “The compounds of Formula I have antibacterial activity against both Gram-positive and Gram-negative organisms. […] Compound” for “Compound”

Proteus morgani 179 = assay: MIC in vitro (Table 1), Proteus morgani 179; assay type: cell-based; conditions: read-out: MIC
Description: as §1

Kleb. pneumo. SK 1200 = assay: MIC in vitro (Table 1), Kleb. pneumo. SK 1200; assay type: cell-based
Description: as §1

E. coli 12140 = assay: In vivo mouse protection (Table 2), E. coli 12140
Description: as §1

S. villaluz = assay: MIC in vitro (Table 1), S. villaluz; assay type: cell-based; conditions: read-out: MIC
Description: as §1, with “The compounds of Formula I have antibacterial activity against both Gram-positive and Gram-negative organisms. […] Compound” for “Compound”

Kleb. pneumo. SK 4200 = assay: MIC in vitro (Table 1), Kleb. pneumo. SK 4200; assay type: cell-based
Description: as §1

Strep. Faecalis HH 34358 = assay: MIC in vitro (Table 1), Strep. Faecalis HH 34358; assay type: cell-based; conditions: Enterococcus faecalis
Description: as §1

S. aureus HH 127 = assay: MIC in vitro (Table 1), S. aureus HH 127; assay type: cell-based; conditions: Staphylococcus aureus
Description: as §1

Salmonella ATCC 12176 = assay: MIC in vitro (Table 1), Salmonella ATCC 12176; assay type: cell-based; conditions: Salmonella, ATCC12176, in vitro, read-out: MIC
Description: as §1, with “The compounds of Formula I have antibacterial activity against both Gram-positive and Gram-negative organisms. […] Compound” for “Compound”

Entero. cloacae HH 31254 = assay: MIC in vitro (Table 1), Entero. cloacae HH 31254; assay type: cell-based; conditions: Enterobacter cloacae
Description: as §1

Serra. Marc. ATCC 13880 = assay: MIC in vitro (Table 1), Serra. Marc. ATCC 13880; assay type: cell-based
Description: as §1

E. coli HH 33779 = assay: MIC in vitro (Table 1), E. coli HH 33779; assay type: cell-based; conditions: Escherichia coli, HH33779, in vitro, E. coli HH 33779; read-out: MIC
Description: as §1

Pseudo. sp. HH 63 = assay: MIC in vitro (Table 1), Pseudo. sp. HH 63; assay type: cell-based; conditions: in vitro, Pseudo. sp. HH 63; read-out: MIC
Description: as §1, with “The compounds of Formula I have antibacterial activity against both Gram-positive and Gram-negative organisms. […] Compound” for “Compound”

[1] = test system: Entero. aerog. ATCC 13048; assay: MIC in vitro (Table 1), Entero. aerog. ATCC 13048; assay type: cell-based
Description: as §1

S. aureus SK 23390 = assay: MIC in vitro (Table 1), S. aureus SK 23390; assay type: cell-based; conditions: Staphylococcus aureus
Description: as §1

Kleb. pneumo. 4200 = assay: In vivo mouse protection (Table 2), Kleb. pneumo. 4200
Description: as §1

[2] = Escherichia coli, 12140, po, E. coli 12140, p.o.
[3] = Escherichia coli, 12140, sc, E. coli 12140, s.c.
[4] = in vitro, Kleb. pneumo. SK 4200, read-out: MIC
[5] = in vitro, Strep. Faecalis HH 34358, read-out: MIC
[6] = SK23390, in vitro, S. aureus SK 23390, read-out: MIC
[7] = HH127, in vitro, S. aureus HH 127, read-out: MIC
[8] = HH31254, in vitro, Entero. cloacae HH 31254, read-out: MIC
[9] = in vitro, Serra. Marc. ATCC 13880, read-out: MIC
[10] = in vitro, Entero. aerog. ATCC 13048, read-out: MIC

`NC(=O)CCCn1nnnc1SCC1=C(C(=O)O)N2C(=O)C(NC(=O)[C@H](O)c3ccccc3)[C@H]2SC1` (stereo partly drawn) [XI, 7-D-Mandelamido-3-[1-(3-carbamoylpropyl)tetrazol-5-ylthiomethyl]-3-cephem-4-carboxylic acid] was tested, and the MIC (E. coli SK 12140) was 0.4 µg/mL (≈ 0.75 µM), the MIC (Shigella HH 117) was 0.4 µg/mL (≈ 0.75 µM) and the MIC (Proteus morgani 179) was 0.8 µg/mL (≈ 1.5 µM). For the same molecule, the MIC (Kleb. pneumo. SK 1200; read-out: MIC) was 0.8 µg/mL (≈ 1.5 µM), the ED50 (E. coli 12140; [2]) was over 50 mg/kg and the ED50 (E. coli 12140; [3]) was 1.56 mg/kg. It also gave an MIC (S. villaluz) of 50 µg/mL (≈ 93.7 µM), an MIC (Kleb. pneumo. SK 4200; [4]) of 0.8 µg/mL (≈ 1.5 µM) and an MIC (Strep. Faecalis HH 34358; [5]) of 50 µg/mL (≈ 93.7 µM). It also gave an MIC (S. aureus HH 127; HH127) of 3.1 µg/mL (≈ 5.81 µM), an MIC (Salmonella ATCC 12176) of 0.8 µg/mL (≈ 1.5 µM) and an MIC (Entero. cloacae HH 31254; HH31254) of 3.1 µg/mL (≈ 5.81 µM). The MIC (Serra. Marc. ATCC 13880) was 25 µg/mL (≈ 46.9 µM), the MIC (E. coli HH 33779) was 3.1 µg/mL (≈ 5.81 µM) and the MIC (Pseudo. sp. HH 63) was over 200 µg/mL. The MIC [1] was 3.1 µg/mL (≈ 5.81 µM), the MIC (S. aureus SK 23390; [6]) was 3.1 µg/mL (≈ 5.81 µM) and the ED50 (Kleb. pneumo. 4200; po, Kleb. pneumo. 4200, p.o.) was 25 mg/kg. The ED50 (Kleb. pneumo. 4200; sc, Kleb. pneumo. 4200, s.c.) was 0.37 mg/kg.

`O=C(O)CCn1nnnc1SCC1=C(C(=O)O)N2C(=O)C(NC(=O)CSC(F)(F)F)[C@H]2SC1` (stereo partly shown) [XV, 7-Trifluoromethylmercaptoacetamido-3-[1-(2-carboxyethyl)tetrazol-5-ylthiomethyl]-3-cephem-4-carboxylic acid] was tested, and the MIC (E. coli SK 12140; read-out: MIC) was 0.8 µg/mL (≈ 1.51 µM), the MIC (Shigella HH 117) was 0.8 µg/mL (≈ 1.51 µM) and the MIC (Proteus morgani 179) was over 200 µg/mL. It also gave an MIC (Kleb. pneumo. SK 1200) of 0.4 µg/mL (≈ 0.757 µM), an ED50 (E. coli 12140; [2]) of over 50 mg/kg and an ED50 (E. coli 12140; [3]) of 1.56 mg/kg. The MIC (S. villaluz) was 25 µg/mL (≈ 47.3 µM), the MIC (Kleb. pneumo. SK 4200; [4]) was 0.8 µg/mL (≈ 1.51 µM) and the MIC (Strep. Faecalis HH 34358; [5]) was 50 µg/mL (≈ 94.6 µM). It also gave an MIC (S. aureus HH 127; [7]) of 1.6 µg/mL (≈ 3.03 µM), an MIC (Salmonella ATCC 12176) of 0.4 µg/mL (≈ 0.757 µM) and an MIC (Entero. cloacae HH 31254; [8]) of 0.8 µg/mL (≈ 1.51 µM). It also gave an MIC (Serra. Marc. ATCC 13880; [9]) of 200 µg/mL (≈ 378 µM), an MIC (E. coli HH 33779) of 3.1 µg/mL (≈ 5.87 µM) and an MIC [1, 10] of 6.3 µg/mL (≈ 11.9 µM). For the same molecule, the MIC (S. aureus SK 23390; SK23390) was 0.8 µg/mL (≈ 1.51 µM), the ED50 (Kleb. pneumo. 4200; po, Kleb. pneumo. 4200, p.o.) was 46 mg/kg and the ED50 (Kleb. pneumo. 4200; sc, Kleb. pneumo. 4200, s.c.) was 1.12 mg/kg.

`NC(=O)CCn1nnnc1SCC1=C(C(=O)O)N2C(=O)C(NC(=O)CSC(F)(F)F)[C@H]2SC1` (stereo partly shown) [XVI, 7-Trifluoromethylmercaptoacetamido-3-[1-(2-carbamoylethyl)tetrazol-5-ylthiomethyl]-3-cephem-4-carboxylic acid] showed an MIC (E. coli SK 12140) of 0.4 µg/mL (≈ 0.758 µM), an MIC (Shigella HH 117) of 0.2 µg/mL (≈ 0.379 µM) and an MIC (Proteus morgani 179) of 12.5 µg/mL (≈ 23.7 µM). It also gave an MIC (Kleb. pneumo. SK 1200) of 0.4 µg/mL (≈ 0.758 µM), an ED50 (E. coli 12140; [2]) of 25 mg/kg and an ED50 (E. coli 12140; [3]) of 0.78 mg/kg. It also gave an MIC (S. villaluz) of 6.3 µg/mL (≈ 11.9 µM), an MIC (Kleb. pneumo. SK 4200; [4]) of 0.8 µg/mL (≈ 1.52 µM) and an MIC (Strep. Faecalis HH 34358) of 12.5 µg/mL (≈ 23.7 µM). The MIC (S. aureus HH 127; [7]) was 0.4 µg/mL (≈ 0.758 µM), the MIC (Salmonella ATCC 12176) was 0.4 µg/mL (≈ 0.758 µM) and the MIC (Entero. cloacae HH 31254; [8]) was 0.4 µg/mL (≈ 0.758 µM). It also gave an MIC (E. coli HH 33779) of 1.6 µg/mL (≈ 3.03 µM), an MIC (Pseudo. sp. HH 63) of over 200 µg/mL and an MIC [1, 10] of 1.6 µg/mL (≈ 3.03 µM). For the same molecule, the MIC (S. aureus SK 23390; SK23390) was 0.8 µg/mL (≈ 1.52 µM) and the ED50 (Kleb. pneumo. 4200; sc, Kleb. pneumo. 4200, s.c.) was 0.54 mg/kg.

With `NC(=O)Cn1nnnc1SCC1=C(C(=O)O)N2C(=O)C(NC(=O)CSC(F)(F)F)[C@H]2SC1` (stereo partly shown) [XVII, 7-Trifluoromethylmercaptoacetamido-3-(1-carbamoylmethyltetrazol-5-ylthiomethyl)-3-cephem-4-carboxylic acid] the MIC (E. coli SK 12140) was 0.4 µg/mL (≈ 0.779 µM), the MIC (Shigella HH 117) was 0.2 µg/mL (≈ 0.389 µM) and the MIC (Proteus morgani 179) was 200 µg/mL (≈ 389 µM). It also gave an MIC (Kleb. pneumo. SK 1200) of 0.4 µg/mL (≈ 0.779 µM), an ED50 (E. coli 12140; [2]) of 6.25 mg/kg and an ED50 (E. coli 12140; [3]) of 0.28 mg/kg. It also gave an MIC (S. villaluz) of 12.5 µg/mL (≈ 24.3 µM), an MIC (Kleb. pneumo. SK 4200; [4]) of 0.8 µg/mL (≈ 1.56 µM) and an MIC (Strep. Faecalis HH 34358; [5]) of 25 µg/mL (≈ 48.7 µM). It also gave an MIC (S. aureus HH 127; [7]) of 0.4 µg/mL (≈ 0.779 µM), an MIC (Salmonella ATCC 12176) of 0.4 µg/mL (≈ 0.779 µM) and an MIC (Entero. cloacae HH 31254; [8]) of 0.8 µg/mL (≈ 1.56 µM). For the same molecule, the MIC (Serra. Marc. ATCC 13880; [9]) was 100 µg/mL (≈ 195 µM), the MIC (E. coli HH 33779) was 3.1 µg/mL (≈ 6.04 µM) and the MIC [1, 10] was 1.6 µg/mL (≈ 3.12 µM). The MIC (S. aureus SK 23390; SK23390) was 0.4 µg/mL (≈ 0.779 µM), the ED50 (Kleb. pneumo. 4200; po, Kleb. pneumo. 4200, p.o.) was 15.5 mg/kg and the ED50 (Kleb. pneumo. 4200; sc, Kleb. pneumo. 4200, s.c.) was 0.78 mg/kg.

With `O=C(O)Cn1nnnc1SCC1=C(C(=O)O)N2C(=O)C(NC(=O)CSC(F)(F)F)[C@H]2SC1` (stereo partly shown) [XVIII, 7-Trifluoromethylmercaptoacetamido-3-(1-carboxymethyltetrazol-5-ylthiomethyl)-3-cephem-4-carboxylic acid] the MIC (E. coli SK 12140; read-out: MIC) was 0.8 µg/mL (≈ 1.55 µM), the MIC (Shigella HH 117) was 3 µg/mL (≈ 5.83 µM) and the MIC (Proteus morgani 179) was 200 µg/mL (≈ 389 µM). For the same molecule, the MIC (Kleb. pneumo. SK 1200) was 0.4 µg/mL (≈ 0.777 µM), the ED50 (E. coli 12140; [3]) was 3.1 mg/kg and the MIC (S. villaluz) was 100 µg/mL (≈ 194 µM). For the same molecule, the MIC (Kleb. pneumo. SK 4200) was 0.4 µg/mL (≈ 0.777 µM), the MIC (Strep. Faecalis HH 34358; [5]) was 100 µg/mL (≈ 194 µM) and the MIC (S. aureus HH 127; [7]) was 3 µg/mL (≈ 5.83 µM). For the same molecule, the MIC (Salmonella ATCC 12176) was 0.8 µg/mL (≈ 1.55 µM), the MIC (Entero. cloacae HH 31254; [8]) was 3 µg/mL (≈ 5.83 µM) and the MIC (Serra. Marc. ATCC 13880; [9]) was over 200 µg/mL. It also gave an MIC (E. coli HH 33779) of 6 µg/mL (≈ 11.7 µM), an MIC [1, 10] of 13 µg/mL (≈ 25.3 µM) and an MIC (S. aureus SK 23390; [6]) of 3 µg/mL (≈ 5.83 µM). The ED50 (Kleb. pneumo. 4200; sc, Kleb. pneumo. 4200, s.c.) was 0.4 mg/kg.

Reference: patent US4220644A, “7-Acylamino-3-(substituted tetrazolyl thiomethyl) cephalosporins” (SmithKline Corporation, priority 1976, dated 1980)
